Source: patent publication US10285982B2, “3-(1H-pyrrolo[2,3-B]pyridin-2-yl)-1H-pyrazolo[3,4-C]pyridines and therapeutic uses thereof” (Samumed, LLC, priority 2015, dated 2019)

Key:
[1] = system: Wnt activity (Sp5-Luc reporter, SW480 colon carcinoma cells); test: Wnt activity screening assay, Sp5-Luc reporter gene in SW480 cells; assay type: cell-based; conditions: Homo sapiens; for inhibition at 10 µM: given where EC50 >10 μM, read-out: percent inhibition at 10 μM; for EC50: overnight incubation
Summary of the method: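 Wnt-driven firefly luciferase in SW480 colon carcinoma cells reports pathway activity after overnight compound exposure (10 μM top concentration, 3-fold steps). Signal is normalized to DMSO controls.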

[2] = system: primary human mesenchymal stem cells (hMSCs); test: Chondrogenesis induction in hMSCs (nodule count); assay type: cell-based; conditions: 144 h, hMSC chondrogenesis, 6 days; for EC50: concentration required to induce 50% of TGF-β3 level, read-out: Conc. (nM) of 50% TGF-β3 activity; for Emax: relative to TGF-β3 (10 ng/mL) positive control, read-out: Max. Activity as % TGF-β3 activity
Procedure: Representative compounds were screened using primary human mesenchymal stem cells (hMSCs) to determine their ability to induce chondrogenesis (process by which cartilage is developed).
Primary human mesenchymal stem cells (hMSCs) were purchased from Lonza (Walkersville, Md.) and expanded in Mesenchymal Stem Cell Growth Media (Lonza). Cells between passage 3 and 6 were used for the experiments.
Each compound was dissolved in DMSO as a 10 mM stock and used to prepare compound source plates. Serial dilution (1:3, 6-point dose-response curves from 2700 nM to 10 nM) and compound transfer was performed using the ECHO 550 (Labcyte, Sunnyvale, Calif.) into 96-well clear bottom assay plates (Greiner Bio-One) with appropriate DMSO backfill for a final DMSO concentration of 0.03%. hMSCs were plated at 20,000 cells/well in 250 μL/well Incomplete Chondrogenic Induction Medium (Lonza; DMEM, dexamethasone, ascorbate, insulin-transferrin-selenium [ITS supplement], gentamycin-amphotericin [GA-1000], sodium pyruvate, proline and L-glutamine). TGF-β3 (10 ng/mL) was used as a positive control for differentiation while negative control wells were treated with 75 nL DMSO for normalization and calculating EC50 values. Cells were incubated at 37° C. and 5% CO2 for 6 days. To image chondrogenic nodules, the cells were fixed using 4% formaldehyde (Electron Microscopy Sciences), and stained with 2 μg/mL Rhodamine B (Sigma-Aldrich) and 20 μM Nile Red (Sigma-Aldrich) [Johnson K., et. al, A Stem Cell-Based Approach to Cartilage Repair, Science, (2012), 336(6082), 717-721]. The nodules imaged (4 images per well at 4× magnification) by excitation at 531 nm and emission at 625 nm and quantified using the CellInsight CX5 (Thermo Scientific). Number of nodules in each well was normalized to the average of 3 DMSO treated wells on the same plate using Excel (Microsoft Inc.). The normalized averages (fold change over DMSO) of 3 replicate wells for each compound concentration were calculated. Due to solubility limitations of some of the compounds, curve fitting was incomplete leading to inaccurate EC50 determinations.
Using TGF-β3 as a positive control, the concentration of representative compounds required to induce 50% levels of chondrogenesis is reported. In addition, the maximum activity of each compound and the respective dose that each compound reached maximum chondrogenesis activity is reported.

| Compound | EC50 [1] [nM] | EC50 [2] [nM] | inhibition at 10 µM [1] [%] | Emax [2] [%] |
| --- | --- | --- | --- | --- |
| CC(C)(C)C(=O)Nc1cncc(-c2cc3c(-c4cc5c(-c6cccc(F)c6)ccnc5[nH]4)n[nH]c3cn2)c1 [Compound 8, N-(5-(3-(4-(3-Fluorophenyl)-1H-pyrrolo[2,3-b]pyridin-2-yl)-1H-pyrazolo [3,4-c]pyridin-5-yl)pyridin-3-yl)pivalamide] | 73 | 10 |  | 114 |
| FC1(F)CCN(Cc2cncc(-c3cc4c(-c5cc6cccnc6[nH]5)n[nH]c4cn3)c2)C1 [Compound 278, 5-(5-((3,3-Difluoropyrrolidin-1-yl)methyl)pyridin-3-yl)-3-(1H-pyrrolo[2,3-b]pyridin-2-yl)-1H-pyrazolo[3,4-c]pyridine] | 1350 |  |  | 45 |
| Fc1cccc(-c2ccnc3[nH]c(-c4n[nH]c5cnc(-c6cncc(CN7CCCC7)c6)cc45)cc23)c1 [Compound 14, 3-(4-(3-Fluorophenyl)-1H-pyrrolo[2,3-b]pyridin-2-yl)-5-(5-(pyrrolidin-1-ylmethyl)pyridin-3-yl)-1H-pyrazolo[3,4-c]pyridine] | > 10000 | 100 | 22.8 | 68 |
| O=C(Nc1cncc(-c2cc3c(-c4cc5c(-c6cccnc6)ccnc5[nH]4)n[nH]c3cn2)c1)c1ccccc1 [Compound 95, N-(5-(3-(4-(Pyridin-3-yl)-1H-pyrrolo[2,3-b]pyridin-2-yl)-1H-pyrazolo[3,4-c]pyridin-5-yl)pyridin-3-yl)benzamide] | > 10000 | 10 | 8.7 | 64 |
| CN(C)Cc1cncc(-c2cc3c(-c4cc5c(-c6ccncc6)ccnc5[nH]4)n[nH]c3cn2)c1 [Compound 125, N,N-Dimethyl-1-(5-(3-(4-(pyridin-4-yl)-1H-pyrrolo[2,3-b]pyridin-2-yl)-1H-pyrazolo[3,4-c]pyridin-5-yl)pyridin-3-yl)methanamine] | > 10000 |  | 12.6 | 33 |
| CCCCC(=O)Nc1cncc(-c2cc3c(-c4cc5c(-c6cccnc6)ccnc5[nH]4)n[nH]c3cn2)c1 [Compound 103, N-(5-(3-(4-(Pyridin-3-yl)-1H-pyrrolo[2,3-b]pyridin-2-yl)-1H-pyrazolo[3,4-c]pyridin-5-yl)pyridin-3-yl)pentanamide] | > 10000 | 10 | 7.8 | 53 |
| CCCC(=O)Nc1cncc(-c2cc3c(-c4cc5c(-c6cc(F)cc(NCCN(C)C)c6)ccnc5[nH]4)n[nH]c3cn2)c1 [Compound 465, N-(5-(3-(4-(3-((2-(Dimethylamino)ethyl)amino)-5-fluorophenyl)-1H-pyrrolo [2,3-b]pyridin-2-yl)-1H-pyrazolo[3,4-c]pyridin-5-yl)pyridin-3-yl)butyramide] | > 10000 | 10 | 16.1 | 162 |
| O=C(Nc1cncc(-c2cc3c(-c4cc5cccnc5[nH]4)n[nH]c3cn2)c1)C1CC1 [Compound 272, N-(5-(3-(1H-Pyrrolo[2,3-b]pyridin-2-yl)-1H-pyrazolo[3,4-c]pyridin-5-yl)pyridin-3-yl)cyclopropanecarboxamide] | > 10000 |  | 19.3 | 18 |
| Fc1cccc(-c2ccnc3[nH]c(-c4n[nH]c5cnc(-c6cncnc6)cc45)cc23)c1 [Compound 27, 3-(4-(3-Fluorophenyl)-1H-pyrrolo[2,3-b]pyridin-2-yl)-5-(pyrimidin-5-yl)-1H-pyrazolo[3,4-c]pyridine] | 507 |  |  | 41 |

Continued, in another order:

| EC50 [1] [nM] | EC50 [2] [nM] | Compound | inhibition at 10 µM [1] [%] | Emax [2] [%] |
| --- | --- | --- | --- | --- |
| > 10000 | 10 | CN1CCN(c2ccnc3[nH]c(-c4n[nH]c5cnc(-c6cn[nH]c6)cc45)cc23)CC1 [Compound 635, 3-(4-(4-Methylpiperazin-1-yl)-1H-pyrrolo[2,3-b]pyridin-2-yl)-5-(1H-pyrazol-4-yl)-1H-pyrazolo[3,4-c]pyridine] | 25.4 | 63 |
| > 10000 | 10 | CC(C)Nc1cncc(-c2cc3c(-c4cc5c(-c6cccnc6)ccnc5[nH]4)n[nH]c3cn2)c1 [Compound 96, N-Isopropyl-5-(3-(4-(pyridin-3-yl)-1H-pyrrolo[2,3-b]pyridin-2-yl)-1H-pyrazolo[3,4-c]pyridin-5-yl)pyridin-3-amine] | 30.3 | 77 |
| > 10000 | 30 | CCNCc1cncc(-c2cc3c(-c4cc5c(-c6ccccc6F)ccnc5[nH]4)n[nH]c3cn2)c1 [Compound 62, N-((5-(3-(4-(2-Fluorophenyl)-1H-pyrrolo[2,3-b]pyridin-2-yl)-1H-pyrazolo [3,4-c]pyridin-5-yl)pyridin-3-yl)methyl)ethanamine] | 6.8 | 270 |
| > 10000 | 100 | CN1CCN(c2ccnc3[nH]c(-c4n[nH]c5cnc(-c6cncc(NC(=O)CC7CCNCC7)c6)cc45)cc23)CC1 [Compound 641, N-(5-(3-(4-(4-Methylpiperazin-1-yl)-1H-pyrrolo[2,3-b]pyridin-2-yl)-1H-pyrazolo[3,4-c]pyridin-5-yl)pyridin-3-yl)-2-(piperidin-4-yl)acetamide] | 8 | 341 |
| > 10000 |  | Nc1cncc(-c2cc3c(-c4cc5c(-c6ccccc6F)ccnc5[nH]4)n[nH]c3cn2)c1 [Compound 59, 5-(3-(4-(2-Fluorophenyl)-1H-pyrrolo[2,3-b]pyridin-2-yl)-1H-pyrazolo[3,4-c]pyridin-5-yl)pyridin-3-amine] | 14.3 | 32 |
| > 10000 |  | CC(C)CC(=O)Nc1cncc(-c2cc3c(-c4cc5cccnc5[nH]4)n[nH]c3cn2)c1 [Compound 254, N-(5-(3-(1H-Pyrrolo[2,3-b]pyridin-2-yl)-1H-pyrazolo[3,4-c]pyridin-5-yl)pyridin-3-yl)-3-methylbutanamide] | 12.4 | 40 |
| > 10000 | 300 | CN1CCN(c2ccnc3[nH]c(-c4n[nH]c5cnc(-c6cncc(CNCC7CCCC7)c6)cc45)cc23)CC1 [Compound 249, 1-Cyclopentyl-N-((5-(3-(4-(4-methylpiperazin-1-yl)-1H-pyrrolo[2,3-b]pyridin-2-yl)-1H-pyrazolo[3,4-c]pyridin-5-yl)pyridin-3-yl)methyl)methanamine] | 41.4 | 150 |
